Laboratory results: patent US20230017786A1, “DEXTR[…] A DISEASE-MODIFYING TREATMENT FOR NEUROPSYCHIATRIC DISORDERS AND DISEASES” (priority 2020, published 2023)
Values joined by “and” are separate entries in the source; they are usually repeats but may differ in a detail not shown here. Equal values may be shown once.

What was measured:
Assay type in all cases: cell-based
[1] = molecular target: T1, human NMDA receptor GluN1-GluN2A (Homo sapiens, UniProt Q05586+Q12879); assay: FLIPR calcium assay, quinolinic acid, gentamicin, dextromethadone (Example 5 Part II), GluN1-GluN2A-CHO; set-up: calcium response (mean±SEM): unit not given here; conditions: 10 μM glycine, GluN2A, n=42
T1 construct: expressed in transfected cells; host or cells: CHO
Description: (§1) Quinolinic acid or gentamicin CRCs were also produced, in presence of 10 μM glycine.
(§2) Test items were evaluated in FLIPR for their ability to modulate, alone or in combination, calcium entry in presence of […], using four CHO cell lines expressing diheteromeric human NMDA receptor (NMDAR): GluN-/GluN2A-CHO, GluN1-GluN2B-CHO, GluN1-GluN2C-CHO, GluN1-GluN2D-CHO.
(§3) The first aim of the study was to evaluate quinolinic acid or gentamicin CRC effect in the presence of 10 μM glycine.
(§4) FLIPR determination of intracellular calcium level was used as a read-out for NMDAR activation.
(§5) 400× compound plate was stored at −20° C. till FLIPR experimental day.
(§6) A 4× compound plate was generated from 400× compound plate by addition of up to 30 μl/well of compound buffer on FLIPR experimental day.
(§7) A FLIPR system was used to monitor intracellular calcium level in NMDAR cell lines, pre-loaded for 1 hour with Fluo-4, and then washed with assay buffer.
(§8) Y=Bottom+(Top−Bottom)/(1+10^((LogEC50−X)*HillSlope))
(§9) Test item CRC data were plotted by Prism 8 GraphPad software, in the different experimental conditions. And, column analysis, performed by Prism 8 GraphPad software, was one way ANOVA followed by Tukey's multiple comparisons test, with a single pooled variance.

[2] = molecular target: T2, human NMDA receptor GluN1-GluN2D (Homo sapiens, UniProt O15399+Q05586); assay: FLIPR calcium assay, quinolinic acid, gentamicin, dextromethadone (Example 5 Part II), GluN1-GluN2D-CHO; conditions: 10 μM glycine; for calcium response (mean±SEM): GluN2D, n=42
T2 construct: expressed in transfected cells; host or cells: CHO
Description: as §1, §2, §3, §4, §5, §6, §7, §8, §9

[3] = molecular target: T1, human NMDA receptor GluN1-GluN2A; assay: FLIPR calcium assay, test item effect on L-glutamate CRC, GluN1-GluN2A-CHO
Description: as §4
(§10) 400× compound plate was stored at −20° C. until FLIPR experimental day.
(§11) 4× compound plate was generated from 400× compound plate by addition of up to 30 μl/well of compound buffer on FLIPR experimental day.
as §7
(§12) Y=Bottom+(Top−Bottom)/(1+10^((LogEC50−Log[A])*HillSlope))

[4] = molecular target: T3, human NMDA receptor GluN1-GluN2B (Homo sapiens, UniProt Q05586+Q13224); assay: cell-based
T3 construct: expressed in transfected cells; host or cells: CHO
Description: as §4, §10, §11, §7, §12

[5] = molecular target: T4, human NMDA receptor GluN1-GluN2C (Homo sapiens, UniProt Q05586+Q14957); assay: FLIPR calcium assay, quinolinic acid, gentamicin, dextromethadone (Example 5 Part II), GluN1-GluN2C-CHO; conditions: 10 μM glycine; for calcium response (mean±SEM): GluN2C, n=42
T4 construct: expressed in transfected cells; host or cells: CHO
Description: as §1, §2, §3, §4, §5, §6, §7, §8, §9

[6] = molecular target: T4, human NMDA receptor GluN1-GluN2C; assay: FLIPR calcium assay, test item effect on L-glutamate CRC, GluN1-GluN2C-CHO
Description: as §4, §10, §11, §7, §12

[7] = molecular target: T2, human NMDA receptor GluN1-GluN2D; assay: FLIPR calcium assay, test item effect on L-glutamate CRC, GluN1-GluN2D-CHO
Description: as §4, §10, §11, §7, §12

[8] = molecular target: T3, human NMDA receptor GluN1-GluN2B; assay: FLIPR calcium assay, quinolinic acid, gentamicin, dextromethadone (Example 5 Part II), GluN1-GluN2B-CHO; conditions: 10 μM glycine, GluN2B, n=42
Description: as §1, §2, §3, §4, §5, §6, §7, §8, §9

[9] = test system: diheteromeric human recombinant NMDAR containing GluN1 plus GluN2A, GluN2B, GluN2C or GluN2D; assay: FLIPR calcium assay, statements for all four NMDAR subtypes together
Description: An operational equation for allosteric modulators (Leach K, Sexton P M and Christopoulos A, Allosteric GPCR modulators: taking advantage of permissive receptor pharmacology, Trends Pharmacol. Sci. 28: 382-389, 2007; Kenakin T P, Overview of receptor interaction of agonists and antagonists, Curr. Protoc. Pharmacol. Chapter 4: Unit 4.1, 2008, Kenakin T P, Biased signalling and allosteric machines: new vistas and challenges for drug discovery, Br. J. Pharmacol. 165: 1659-1669, 2012) was created in Prism 8 (GraphPad) software to estimate KB and a parameters for every test item, with the assumption that, as a pore blocker, every test item would be able to produce a compete blockade of agonist response, at sufficiently high concentration: […]

[10] = L-glutamate alone, 10 μM glycine
[11] = calculated from EC50 and Hill slope

T2 sequence (O15399 28-1336, other chains not shown): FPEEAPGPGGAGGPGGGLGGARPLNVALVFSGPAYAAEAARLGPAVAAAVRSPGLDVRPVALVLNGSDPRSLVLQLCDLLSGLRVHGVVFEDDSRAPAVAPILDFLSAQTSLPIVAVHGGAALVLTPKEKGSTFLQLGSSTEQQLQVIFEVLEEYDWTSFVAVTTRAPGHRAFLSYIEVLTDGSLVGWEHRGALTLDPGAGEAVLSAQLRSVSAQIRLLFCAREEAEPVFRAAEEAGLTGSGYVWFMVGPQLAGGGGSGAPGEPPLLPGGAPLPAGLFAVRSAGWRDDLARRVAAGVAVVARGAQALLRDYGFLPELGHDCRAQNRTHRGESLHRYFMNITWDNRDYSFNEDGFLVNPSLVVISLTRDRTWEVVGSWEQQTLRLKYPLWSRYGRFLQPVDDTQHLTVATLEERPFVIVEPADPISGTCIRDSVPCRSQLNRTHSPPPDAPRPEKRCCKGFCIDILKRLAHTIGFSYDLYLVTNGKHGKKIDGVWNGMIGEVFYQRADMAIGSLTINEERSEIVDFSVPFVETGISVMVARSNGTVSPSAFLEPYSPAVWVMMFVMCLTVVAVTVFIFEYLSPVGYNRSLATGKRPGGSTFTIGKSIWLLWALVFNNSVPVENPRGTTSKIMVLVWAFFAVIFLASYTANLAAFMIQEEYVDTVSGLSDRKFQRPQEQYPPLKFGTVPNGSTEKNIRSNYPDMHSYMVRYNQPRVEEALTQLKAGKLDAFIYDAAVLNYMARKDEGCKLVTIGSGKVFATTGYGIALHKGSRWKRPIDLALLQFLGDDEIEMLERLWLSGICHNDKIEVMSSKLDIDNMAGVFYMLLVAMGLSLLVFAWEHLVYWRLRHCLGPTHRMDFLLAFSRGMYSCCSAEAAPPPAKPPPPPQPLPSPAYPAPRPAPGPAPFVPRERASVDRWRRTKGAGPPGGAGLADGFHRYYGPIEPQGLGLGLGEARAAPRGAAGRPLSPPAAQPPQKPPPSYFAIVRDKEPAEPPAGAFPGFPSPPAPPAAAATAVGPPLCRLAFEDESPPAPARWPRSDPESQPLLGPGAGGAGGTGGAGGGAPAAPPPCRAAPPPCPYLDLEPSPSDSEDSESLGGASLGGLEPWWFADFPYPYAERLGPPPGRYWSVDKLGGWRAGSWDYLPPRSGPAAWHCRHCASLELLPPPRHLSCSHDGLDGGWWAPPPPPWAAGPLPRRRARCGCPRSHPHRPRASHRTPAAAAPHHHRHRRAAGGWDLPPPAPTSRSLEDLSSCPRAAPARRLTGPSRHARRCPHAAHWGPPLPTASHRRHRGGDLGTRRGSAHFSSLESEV
T1 sequence (Q12879 23-1464, other chains not shown): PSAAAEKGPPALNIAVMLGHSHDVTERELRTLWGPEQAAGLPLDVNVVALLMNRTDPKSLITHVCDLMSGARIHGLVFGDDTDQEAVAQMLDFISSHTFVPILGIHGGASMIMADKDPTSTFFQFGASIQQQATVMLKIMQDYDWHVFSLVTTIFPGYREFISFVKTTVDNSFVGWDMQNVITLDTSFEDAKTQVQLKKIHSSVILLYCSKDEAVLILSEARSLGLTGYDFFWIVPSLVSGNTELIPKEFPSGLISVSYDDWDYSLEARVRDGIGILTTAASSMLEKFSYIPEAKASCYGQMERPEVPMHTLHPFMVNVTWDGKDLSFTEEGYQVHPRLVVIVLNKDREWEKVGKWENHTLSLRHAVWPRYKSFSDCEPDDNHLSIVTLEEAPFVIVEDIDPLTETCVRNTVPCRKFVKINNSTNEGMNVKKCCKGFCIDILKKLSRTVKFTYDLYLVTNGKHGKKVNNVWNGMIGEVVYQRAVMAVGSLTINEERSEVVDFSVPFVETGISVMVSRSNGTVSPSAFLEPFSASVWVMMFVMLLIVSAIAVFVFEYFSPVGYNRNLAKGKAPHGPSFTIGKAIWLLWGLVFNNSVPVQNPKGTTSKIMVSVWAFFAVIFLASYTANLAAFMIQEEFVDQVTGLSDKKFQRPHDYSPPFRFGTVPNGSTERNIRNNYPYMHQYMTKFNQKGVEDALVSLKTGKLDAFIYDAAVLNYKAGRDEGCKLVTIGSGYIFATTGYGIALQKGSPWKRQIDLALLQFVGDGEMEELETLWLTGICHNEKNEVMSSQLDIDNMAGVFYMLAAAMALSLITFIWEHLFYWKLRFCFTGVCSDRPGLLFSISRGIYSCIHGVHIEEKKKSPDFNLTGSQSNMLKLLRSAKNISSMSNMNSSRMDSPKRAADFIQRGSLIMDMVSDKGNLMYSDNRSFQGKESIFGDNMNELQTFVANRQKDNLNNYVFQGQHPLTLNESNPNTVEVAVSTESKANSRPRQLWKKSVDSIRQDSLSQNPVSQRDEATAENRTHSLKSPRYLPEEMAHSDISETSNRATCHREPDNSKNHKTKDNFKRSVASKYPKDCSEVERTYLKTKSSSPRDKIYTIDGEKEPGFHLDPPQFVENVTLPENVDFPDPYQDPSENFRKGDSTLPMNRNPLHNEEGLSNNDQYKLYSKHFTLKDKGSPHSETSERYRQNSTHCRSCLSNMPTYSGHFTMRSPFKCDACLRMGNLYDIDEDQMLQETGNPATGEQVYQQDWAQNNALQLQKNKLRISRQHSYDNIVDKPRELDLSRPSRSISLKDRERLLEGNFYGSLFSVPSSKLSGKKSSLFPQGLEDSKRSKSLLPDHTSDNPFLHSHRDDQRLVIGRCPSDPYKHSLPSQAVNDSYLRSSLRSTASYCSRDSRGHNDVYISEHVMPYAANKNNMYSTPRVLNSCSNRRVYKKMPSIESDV
T4 sequence (Q14957 20-1233, other chains not shown): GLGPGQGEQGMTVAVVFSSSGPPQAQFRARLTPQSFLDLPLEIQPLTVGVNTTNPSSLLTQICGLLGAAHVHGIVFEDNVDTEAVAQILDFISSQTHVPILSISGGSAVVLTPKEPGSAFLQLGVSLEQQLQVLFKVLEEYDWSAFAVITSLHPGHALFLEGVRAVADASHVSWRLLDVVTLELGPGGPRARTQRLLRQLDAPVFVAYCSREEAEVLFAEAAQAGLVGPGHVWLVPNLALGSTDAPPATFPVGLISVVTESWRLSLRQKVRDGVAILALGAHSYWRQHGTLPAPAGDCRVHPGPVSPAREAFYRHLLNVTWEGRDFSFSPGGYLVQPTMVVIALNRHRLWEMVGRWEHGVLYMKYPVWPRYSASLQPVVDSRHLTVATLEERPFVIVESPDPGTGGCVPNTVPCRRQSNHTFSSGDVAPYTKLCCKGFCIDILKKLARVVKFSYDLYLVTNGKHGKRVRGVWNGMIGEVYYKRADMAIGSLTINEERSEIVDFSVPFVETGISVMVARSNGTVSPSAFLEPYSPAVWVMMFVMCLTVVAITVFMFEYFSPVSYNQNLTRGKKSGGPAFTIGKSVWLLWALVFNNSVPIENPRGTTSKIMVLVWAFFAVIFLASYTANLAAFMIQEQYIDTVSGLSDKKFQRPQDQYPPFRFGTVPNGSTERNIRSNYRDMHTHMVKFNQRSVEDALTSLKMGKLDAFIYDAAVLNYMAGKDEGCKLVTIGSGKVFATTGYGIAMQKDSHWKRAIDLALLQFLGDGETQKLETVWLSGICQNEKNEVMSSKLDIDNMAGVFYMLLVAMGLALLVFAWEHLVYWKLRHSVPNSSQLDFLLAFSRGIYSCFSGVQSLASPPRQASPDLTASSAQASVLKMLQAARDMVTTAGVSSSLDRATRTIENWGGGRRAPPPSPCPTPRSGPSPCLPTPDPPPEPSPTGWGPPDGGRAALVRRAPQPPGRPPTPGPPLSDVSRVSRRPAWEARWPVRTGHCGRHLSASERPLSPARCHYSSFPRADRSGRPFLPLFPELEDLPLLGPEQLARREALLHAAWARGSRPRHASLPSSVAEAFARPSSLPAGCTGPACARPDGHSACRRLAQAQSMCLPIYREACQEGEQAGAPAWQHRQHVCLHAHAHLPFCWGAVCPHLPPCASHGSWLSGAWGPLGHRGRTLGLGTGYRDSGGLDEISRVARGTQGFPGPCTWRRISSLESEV

N[C@@H](CCC(=O)O)C(=O)O [L-glutamate, L-glutamic acid]
calcium response (mean±SEM) ([1]; 0.04 μM L-Glu): 1.7 ± 0.3
calcium response (mean±SEM) ([1]; 0.2 μM L-Glu): 22 ± 0.7
calcium response (mean±SEM) ([1]; Table 41: 0.04 μM L-Glu): 1.7 ± 0.3
calcium response (mean±SEM) ([1]; Table 43: 0.2 μM L-Glu): 22 ± 0.7
calcium response (mean±SEM) ([2]; 0.04 μM L-Glu): 18 ± 1.2
calcium response (mean±SEM) ([2]; 0.2 μM L-Glu): 92 ± 2.0
efficacy of 0.2 μM L-glutamate alone [2]: 92±2.0%
calcium response (mean±SEM) ([2]; Table 41: 0.04 μM L-Glu): 18 ± 1.2
calcium response (mean±SEM) ([2]; Table 43: 0.2 μM L-Glu): 92 ± 2.0
Bottom [3, 10]: −0.62
HillSlope [3, 10]: 1.0
Span [3, 10]: 107
Top [3, 10]: 106
ECF, F=5 [3, 11]: 160 nM
ECF, F=10 [3, 11]: 280 nM
ECF, F=20 [3, 11]: 630 nM
ECF, F=30 [3, 11]: 1.07 µM
ECF, F=40 [3, 11]: 1.67 µM
ECF, F=90 [3, 11]: 23 µM
ECF, F=95 [3, 11]: 48 µM
ECF, F=99 (maximal effect) [3, 11]: 250 µM
Bottom [4]: 1.7
ECF, F=5 [4]: 140 nM
ECF, F=10 [4]: 240 nM
ECF, F=20 [4]: 450 nM
ECF, F=30 [4]: 680 nM
ECF, F=40 [4]: 950 nM
ECF, F=90 [4]: 7.05 µM
ECF, F=95 [4]: 13 µM
ECF, F=99 (maximal effect) [4]: 45 µM
HillSlope [4]: 1.3
Span [4]: 109
Top [4]: 111
calcium response (mean±SEM) ([5]; 0.04 μM L-Glu): −1.2 ± 0.6
calcium response (mean±SEM) ([5]; 0.2 μM L-Glu): 30 ± 1.7
intracellular calcium increase elicited by 0.2 μM L-glutamate ([5]; L-glutamate alone): 30±1.7%
calcium response (mean±SEM) ([5]; Table 41: 0.04 μM L-Glu): −1.2 ± 0.6
calcium response (mean±SEM) ([5]; Table 43: 0.2 μM L-Glu): 30 ± 1.7
Bottom [6, 10]: 0.88
HillSlope [6, 10]: 1.5
LogEC50 [6, 10]: −7.1
Span [6, 10]: 105
Top [6, 10]: 106
ECF, F=5 [6, 11]: 120 nM
ECF, F=10 [6, 11]: 200 nM
ECF, F=20 [6, 11]: 350 nM
ECF, F=30 [6, 11]: 500 nM
ECF, F=40 [6, 11]: 660 nM
ECF, F=90 [6, 11]: 3.76 µM
ECF, F=95 [6, 11]: 6.19 µM
ECF, F=99 (maximal effect) [6, 11]: 19 µM
Bottom [7, 10]: 5.3
HillSlope [7, 10]: 1.6
LogEC50 [7, 10]: −7.5
Span [7, 10]: 99
Top [7, 10]: 105
ECF, F=5 [7, 11]: 54 nM
ECF, F=10 [7, 11]: 86 nM
ECF, F=20 [7, 11]: 140 nM
ECF, F=30 [7, 11]: 200 nM
ECF, F=40 [7, 11]: 260 nM
ECF, F=90 [7, 11]: 1.34 µM
ECF, F=95 [7, 11]: 2.14 µM
ECF, F=99 (maximal effect) [7, 11]: 6 µM and 6.01 µM
calcium response (mean±SEM) ([8]; 0.04 μM L-Glu): −0.9 ± 0.6
calcium response (mean±SEM) ([8]; 0.2 μM L-Glu): 18 ± 1.2
calcium response (mean±SEM) ([8]; Table 41: 0.04 μM L-Glu): 0.9 ± 0.6
calcium response (mean±SEM) ([8]; Table 43: 0.2 μM L-Glu): 18 ± 1.2

(+)-MK 801 maleate
profile on L-glutamate CRC ([9]; 6 test item concentrations): insurmountable profile
GluN2 subunit preference ([9]; from estimated affinities): slight preference for GluN2B containing NMDAR
Kb ([9]; read-out: estimated KB with any/all of the NMDAR subtypes): 50 nM and ≤ 50 nM
